# Experimental data: patent publication US20120178786A9, “Use of tetramic acid derivatives for controlling pests by drenching, drip application, or dip application” (priority 2006, published 2012)
# Tests used:
# [1] = tested on: Frankliniella occidentalis (FRANOC); experiment: Example 6: drench of verbena plants, Henderson-Tilton efficacy against nymphs; format: in vivo; conditions: 12 mg active substance/1 potting compost, 240 SC
# Description: Verbena plants (approximate height 13 cm) in 6-inch-pots which are infected with Frankliniella occidentalis (FRANOC) are drenched, in four replications, with an active substance solution containing the active substance I-4 (cis isomer, formulation: 240 SC) and, by way of comparison, with the commercial standard imidacloprid (240 SC) at the application rate stated. The greenhouse temperature is 27-33° C. The test is evaluated 7, 14, 21 and 28 days after the treatment by determining the activity against nymphs on the leaves with the aid of the Henderson-Tilton method.
# [2] = tested on: citrus mealybug Pseudococcus citri (PSECCI); experiment: Example 12: drench of Coleus plants, Abbott efficacy; format: in vivo; conditions: 240 SC
# Description: Coleus plants (approximate height 29 cm) in 6-inch pots which have been infected approximately 4 weeks before the treatment with citrus mealybug Pseudococcus citri (PSECCI) are drenched, in three replications, with an active substance solution containing the active substance I-4 (cis isomer, formulation: 240 SC) and, by way of comparison, with the commercial standard imidacloprid (240 SC) at the application rate stated. The greenhouse temperature is 29° C. The test is evaluated 7, 14, 21 and 28 days after the treatment by determining the efficacy with the aid of Abbott's formula.
# [3] = tested on: Tetranychus urticae (TETRUR); experiment: Example 5: drench of gardenia plants, Henderson-Tilton efficacy against nymphs; format: in vivo; conditions: 240 SC
# Description: Gardenia plants cv. “Cape jasmine” in 6-inch pots which had been infected with Tetranychus urticae (TETRUR) two weeks before the beginning of the experiment are drenched, in three replications, with in each case 100 ml of active substance solution containing the active substance I-4 (cis isomer, formulation: 240 SC) and, by way of comparison, with the commercial standard imidacloprid (240 SC) at the application rate stated. The greenhouse temperature is 25-30° C. The test is evaluated 3, 15 and 22 days after the treatment by determining the activity against nymphs on the leaves with the aid of the Henderson-Tilton method.
# APHIGO = experiment: Example 2: drench of cucumber plants on rock wool, Abbott efficacy; format: in vivo, Aphis gossypii; conditions: 240 SC
# Description: Cucumber plants cv. “Delikatess” which have been grown on rock wool are drenched, in six replications, one week after transplanting with in each case 100 ml active substance solution containing the active substance I-4 (cis isomer, formulation: 240 SC) at the application rate stated. The greenhouse temperature is 20° C. Infection with APHIGO is accomplished in each case seven and fourteen days after the application of the active substance. The test is evaluated in each case seven days after each infection by determining the activity with the aid of Abbott's formula.
# Aphis gossypii (APHIGO) = experiment: Example 4: drench of aubergine plants, Abbott efficacy; format: in vivo; conditions: infection 7 d after application, 240 SC
# Description: (§1) Aubergine plants (25 days after sowing) in 0.5-1-pots are drenched, in three replications, with 50 ml of active substance solution containing the active substance I-4 (cis isomer, formulation: 240 SC) at the application rate stated. The greenhouse temperature is 20° C. Infection with Aphis gossypii (APHIGO), Myzus persicae (MYZUPE) and Tetranychus urticae (TETRUR) is accomplished in each case seven and fourteen days after the application of the active substance. The test is evaluated in each case seven days after each infection by determining the activity with the aid of Abbott's formula.
# Myzus persicae (MYZUPE) = experiment: as above; format: in vivo; conditions: 240 SC
# Description: as §1
# [4] = tested on: Tetranychus urticae (TETRUR); experiment: as above; format: in vivo; conditions: 240 SC
# Description: as §1
# Liriomyza sp. = experiment: Example 14: drench of bell pepper plots, kill rate of larvae in the leaves; format: in vivo; conditions: 40 + 10 + 10 mg/plant, 240 SC
# Description: Plots approximately 2×5 m in size which contain bell pepper plants are treated, in three replications, against Liriomyza sp. The active substance example (I-4) cis isomer (240 SC) is drenched in an active substance solution at the application rate stated. The water application rate is 700 l/ha. Three treatments are carried out at intervals of 7 and 14 days. The test is evaluated in each case 7 days after the 2nd and 3rd treatment and 14 days after the 3rd treatment by scoring the kill rate of the larvae in the leaves.
# MYZUPE = experiment: Example 1: irrigation experiment in pots, Abbott efficacy; format: in vivo, Myzus persicae
# Description: In an irrigation experiment carried out in 0.5-1-pots, Chinese cabbage, Savoy cabbage, bell peppers and broad beans which had been potted three days earlier are watered, in two replications, with 50 ml of active substance solution containing the active substance I-4 (cis isomer) at the application rates stated. The greenhouse temperature is 20° C. Infection with MYZUPE is accomplished seven and fourteen days after the application of the active substance. The test is evaluated in each case seven days after each infection by determining the activity with the aid of Abbott's formula.
# [5] = infection 7 d after application, 10 mg active substance/plant
# [6] = infection 7 d after application, 20 mg active substance/plant
# [7] = infection 14 d after application, 10 mg active substance/plant
# [8] = infection 14 d after application, 20 mg active substance/plant
smiles,measurement,setting,value
"O=[N+]([O-])NC1=NCCN1Cc1ccc(Cl)nc1 [Imidacloprid, imidacloprid, reference compound]",Henderson-Tilton efficacy (%) against FRANOC,[1]; 7 d after treatment,100%
same,Henderson-Tilton efficacy (%) against FRANOC,[1]; 14 d after treatment,100%
same,Henderson-Tilton efficacy (%) against FRANOC,[1]; 21 d after treatment,49%
same,Henderson-Tilton efficacy (%) against FRANOC,[1]; 28 d after treatment,100%
same,Abbott efficacy (%) against PSECCI,"[2]; 7 d after treatment, 12 mg active substance/1 potting compost",30%
same,Abbott efficacy (%) against PSECCI,"[2]; 14 d after treatment, 12 mg active substance/1 potting compost",35%
same,Abbott efficacy (%) against PSECCI,"[2]; 21 d after treatment, 12 mg active substance/1 potting compost",19%
same,Abbott efficacy (%) against PSECCI,"[2]; 28 d after treatment, 12 mg active substance/1 potting compost",16%
same,Henderson-Tilton efficacy (%) against TETRUR,"[3]; 3 d after treatment, 38.4 mg active substance/1 potting compost",72.7%
same,Henderson-Tilton efficacy (%) against TETRUR,"[3]; 15 d after treatment, 38.4 mg active substance/1 potting compost",82.2%
same,Henderson-Tilton efficacy (%) against TETRUR,"[3]; 22 d after treatment, 38.4 mg active substance/1 potting compost",0%
CCOC(=O)OC1=C(c2cc(C)ccc2C)C(=O)N[C@]12CC[C@@H](OC)CC2 [Example I-4],Abbott efficacy (%) against APHIGO,APHIGO; [5],100%
same,Abbott efficacy (%) against APHIGO,APHIGO; [6],100%
same,Abbott efficacy (%) against APHIGO,"APHIGO; infection 7 d after application, 40 mg active substance/plant",100%
same,Abbott efficacy (%) against APHIGO,APHIGO; [7],91%
same,Abbott efficacy (%) against APHIGO,APHIGO; [8],96%
same,Abbott efficacy (%) against APHIGO,"APHIGO; infection 14 d after application, 40 mg active substance/plant",99%
same,Abbott efficacy (%) against APHIGO,Aphis gossypii (APHIGO); 10 mg active substance/plant,99%
same,Abbott efficacy (%) against APHIGO,Aphis gossypii (APHIGO); 20 mg active substance/plant,100%
same,Abbott efficacy (%) against MYZUPE,Myzus persicae (MYZUPE); [5],100%
same,Abbott efficacy (%) against MYZUPE,Myzus persicae (MYZUPE); [6],100%
same,Abbott efficacy (%) against MYZUPE,Myzus persicae (MYZUPE); [7],100%
same,Abbott efficacy (%) against MYZUPE,Myzus persicae (MYZUPE); [8],100%
same,Abbott efficacy (%) against TETRUR,[4]; [5],96%
same,Abbott efficacy (%) against TETRUR,[4]; [6],100%
same,Abbott efficacy (%) against TETRUR,[4]; [7],73%
same,Abbott efficacy (%) against TETRUR,[4]; [8],77%
same,Henderson-Tilton efficacy (%) against FRANOC,[1]; 7 d after treatment,100%
same,Henderson-Tilton efficacy (%) against FRANOC,[1]; 14 d after treatment,100%
same,Henderson-Tilton efficacy (%) against FRANOC,[1]; 21 d after treatment,90%
same,Henderson-Tilton efficacy (%) against FRANOC,[1]; 28 d after treatment,100%
same,Abbott efficacy (%) against PSECCI,"[2]; 7 d after treatment, 24 mg active substance/1 potting compost",63%
same,Abbott efficacy (%) against PSECCI,"[2]; 14 d after treatment, 24 mg active substance/1 potting compost",91%
same,Abbott efficacy (%) against PSECCI,"[2]; 21 d after treatment, 24 mg active substance/1 potting compost",94%
same,Abbott efficacy (%) against PSECCI,"[2]; 28 d after treatment, 24 mg active substance/1 potting compost",93%
same,Efficacy (% Abbott) against Liriomyza sp.,Liriomyza sp.; 7 d after 2nd treatment,66.7 % Abbott
same,Efficacy (% Abbott) against Liriomyza sp.,Liriomyza sp.; 7 d after 3rd treatment,100 % Abbott
same,Efficacy (% Abbott) against Liriomyza sp.,Liriomyza sp.; 14 d after 3rd treatment,81.8 % Abbott
same,Henderson-Tilton efficacy (%) against TETRUR,"[3]; 3 d after treatment, 77 mg active substance/1 potting compost",39.0%
same,Henderson-Tilton efficacy (%) against TETRUR,"[3]; 15 d after treatment, 77 mg active substance/1 potting compost",89.1%
same,Henderson-Tilton efficacy (%) against TETRUR,"[3]; 22 d after treatment, 77 mg active substance/1 potting compost",100%
same,Abbott efficacy (%) against MYZUPE,"MYZUPE; Bell pepper, infection 7 d after application, 10 mg active substance/plant",100%
same,Abbott efficacy (%) against MYZUPE,"MYZUPE; Bell pepper, infection 7 d after application, 20 mg active substance/plant",100%
same,Abbott efficacy (%) against MYZUPE,"MYZUPE; Bell pepper, infection 14 d after application, 10 mg active substance/plant",100%
same,Abbott efficacy (%) against MYZUPE,"MYZUPE; Bell pepper, infection 14 d after application, 20 mg active substance/plant",100%
same,Abbott efficacy (%) against MYZUPE,"MYZUPE; Broad bean, infection 7 d after application, 10 mg active substance/plant",83%
same,Abbott efficacy (%) against MYZUPE,"MYZUPE; Broad bean, infection 7 d after application, 20 mg active substance/plant",100%
same,Abbott efficacy (%) against MYZUPE,"MYZUPE; Broad bean, infection 14 d after application, 10 mg active substance/plant",23%
same,Abbott efficacy (%) against MYZUPE,"MYZUPE; Broad bean, infection 14 d after application, 20 mg active substance/plant",99%
same,Abbott efficacy (%) against MYZUPE,"MYZUPE; Chinese cabbage, infection 7 d after application, 10 mg active substance/plant",100%
same,Abbott efficacy (%) against MYZUPE,"MYZUPE; Chinese cabbage, infection 7 d after application, 20 mg active substance/plant",100%
same,Abbott efficacy (%) against MYZUPE,"MYZUPE; Chinese cabbage, infection 14 d after application, 10 mg active substance/plant",99%
same,Abbott efficacy (%) against MYZUPE,"MYZUPE; Chinese cabbage, infection 14 d after application, 20 mg active substance/plant",99%
same,Abbott efficacy (%) against MYZUPE,"MYZUPE; Savoy cabbage, infection 7 d after application, 10 mg active substance/plant",100%
same,Abbott efficacy (%) against MYZUPE,"MYZUPE; Savoy cabbage, infection 7 d after application, 20 mg active substance/plant",100%
same,Abbott efficacy (%) against MYZUPE,"MYZUPE; Savoy cabbage, infection 14 d after application, 10 mg active substance/plant",99%
same,Abbott efficacy (%) against MYZUPE,"MYZUPE; Savoy cabbage, infection 14 d after application, 20 mg active substance/plant",99%
